Reference: patent US20100028485A1, “TALAROMYCES EMERSONII ENZYME SYSTEMS” (priority 2006, published 2010)
Read-outs that look alike come from different tables or passages of the source.

How the values were obtained:
Type in all cases: biochemical, Talaromyces emersonii
EG V = assay: Effects of metal ions, chemical modification reagents, detergents and potential inhibitors on EG V; set-up: decrease in activity of EG V by detergent / loss of activity of EG V by detergent: concentration or dose not given beside the values; conditions: for EG V activity, Enzyme + reagent (control = 100.0): Preincubation of enzyme with reagent for 30 min (50 C) prior to addition of substrate; for EG V activity, Substrate + reagent (control = 100.0): Preincubation of substrate with reagent for 30 min (50 C) prior to addition of enzyme; for EG V activity after protection experiment (control = 100.0): 1st incubation (30 min) enzyme + reagent, 2nd incubation (30 min) + NBS
Experimental: (§1) Substrate specificity on various polysaccharides and synthetic glycosides was evaluated by 15 measuring activity against a wide variety of carbohydrates (BBG, lichenan, CMC, other polysaccharides and synthetic glycosides) using the normal β-glucanase assay procedure. • Effects Of Metal Ions, Chemical Modification Reagents And Potential Inhibitors A range of monovalent, divalent and heavy metal ions, at final assay concentrations of 1.0 mM, were investigated for their potential effects on the activities of EG V, EG VI and EG VII, by incubating the enzymes with the chemicals and then conducting the normal enzyme assay. Finally, the inhibitor effects of glycosides, such as disaccharides, lactones and flavanoid glycosides on the purified enzymes were examined. Specified concentrations of each glycoside were included in normal assay cocktails and residual activity determined by comparison with controls (no glycoside present).
(§2) Activity was expressed as a % relative to a control (no metal ion present in incubation mixture). In general, heavy metal ions are thought to inactivate enzymes by forming covalent salts with cysteine, histidine or carboxyl groups. […] A selection of reagents known to modify amino acid R-groups in proteins were tested for their effects on EG V, EG VI and EG VII, both in the absence and presence of substrate (substrate-protective effects could be observed in this manner) (see Table 6).

EG VI = assay: Effects of metal ions, chemical modification reagents, detergents and potential inhibitors on EG VI; conditions: for EV VI activity, Enzyme + reagent (control = 100.0): Preincubation of enzyme with reagent for 30 min (50 C) prior to addition of substrate; for EGVI activity, Substrate + reagent (control = 100.0): Preincubation of substrate with reagent for 30 min (50 C) prior to addition of enzyme; for increase in activity of EG VI: 1 mM metal ion, relative to control without metal ion; for EGVI activity after protection experiment (control = 100.0): 1st incubation (30 min) enzyme + reagent, 2nd incubation (30 min) + NBS
Experimental: as §1, §2

EG VII = assay: Effects of metal ions, chemical modification reagents, detergents and potential inhibitors on EG VII; conditions: for EG VII activity, Enzyme + reagent (control = 100.0): Preincubation of enzyme with reagent for 30 min (50 C) prior to addition of substrate; for EG VII activity, Substrate + reagent (control = 100.0): Preincubation of substrate with reagent for 30 min (50 C) prior to addition of enzyme; for EG VII activity after protection experiment (control = 100.0): 1st incubation (30 min) enzyme + reagent, 2nd incubation (30 min) + NBS
Experimental: as §1, §2

EG V, EG VI and EG VII = assay: Effects of metal ions, reagents, phenolics and glycosides stated for all three enzymes; conditions: for effect of metal ion on activity of all three enzymes: 1 mM metal ion; for effect of phenolic substances on enzyme activity: pre-incubation of enzyme with compound in the absence of substrate
Experimental: as §1, §2

[1] = pre-incubated with enzyme in advance of the addition of substrate
[2] = 1 mM metal ion, relative to control without metal ion

Row | Compound | EG V activity, Enzyme + reagent (control = 100.0) (EG V) | EG V activity, Substrate + reagent (control = 100.0) (EG V) | EV VI activity, Enzyme + reagent (control = 100.0) (EG VI) | EGVI activity, Substrate + reagent (control = 100.0) (EG VI) | EG VII activity, Enzyme + reagent (control = 100.0) (EG VII) | EG VII activity, Substrate + reagent (control = 100.0) (EG VII) | also measured
1 | Tween 20 | – | – | – | – | – | – | decrease in activity of EG V by detergent (EG V; [1]): 12.7%
2 | CC[n+]1ccc(-c2cccc(S(=O)(=O)[O-])c2)o1 [Woodward's Reagent K] | 162.7 | 121.1 | 280.0 | 266.7 | 305.9 | 143.0 | –
3 | C[S+](C)[O-] [Dimethylsuphoxide] | 125.5 | 93.6 | 124.3 | 141.7 | 194.0 | 100.0 | –
4 | C[C@H](CCC(=O)NCCS(=O)(=O)O)[C@H]1CC[C@H]2[C@@H]3CC[C@@H]4C[C@H](O)CC[C@]4(C)[C@H]3C[C@H](O)[C@]12C [taurodeoxycholic acid] | – | – | – | – | – | – | decrease in activity of EG V by detergent (EG V; [1]): 22.7%
5 | [Zn+2] [Zn^230] | – | – | – | – | – | – | effect of metal ion on activity of all three enzymes (EG V, EG VI and EG VII): enhanced the activity
6 | [K+] [K^+] | – | – | – | – | – | – | increase in activity of EG VII (EG VII): 20%
7 | [Ba+2] [Ba^2+] | – | – | – | – | – | – | decrease in activity of EG V (EG V; [2]): 16.5%; increase in activity of EG VI (EG VI): 37.6%
8 | [Na+].[O-][I+3]([O-])([O-])[O-] [Sodium periodate] | 181.0 | 283.3 | 357.1 | 1001.2 | 300.0 | 469.7 | –
9 | [Ca+2] [Ca^2+] | – | – | – | – | – | – | decrease in activity of EG V (EG V; [2]): 21.5-24.6%; increase in activity of EG VI (EG VI): 10%; enhancement of EG VII activity by SO4^2− salt relative to corresponding Cl^− salt (EG VII; 1 mM): ~2 fold
10 | OC[C@H]1O[C@H](O[C@H]2[C@H](O)[C@@H](O)[C@H](O)O[C@@H]2CO)[C@H](O)[C@@H](O)[C@@H]1O [maltose] | – | – | – | – | – | – | effect of glycosides/disaccharides on activity of EG V-VII (EG V, EG VI and EG VII): no apparent effect
11 | O=C(O)CS [Thioglycolic acid] | 211.1 | 148.1 | 187.1 | 269.0 | 188.1 | 150.0 | –
12 | OC[C@H]1O[C@@H](Oc2ccc(O)cc2)[C@H](O)[C@@H](O)[C@@H]1O [arbutin] | – | – | – | – | – | – | effect of glycosides/disaccharides on activity of EG V-VII (EG V, EG VI and EG VII): no apparent effect
13 | CCN1C(=O)C=CC1=O [N-ethylmaleimide] | – | – | – | – | – | – | inhibition by sulphydryl reagents (EG V, EG VI and EG VII; in the presence or absence of substrate): little or no inhibition
14 | [Na+] [Na^+] | – | – | – | – | – | – | increase in activity of EG V (EG V; [2]): > 39%
15 | O=Cc1ccccc1C=O [o-Phthaldialdehyde] | 106.1 | 94.6 | 100.0 | 139.0 | 155.0 | 98.8 | –
16 | [Hg+2] [Hg^2+] | – | – | – | – | – | – | effect of metal ion on activity of all three enzymes (EG V, EG VI and EG VII): Almost total inhibition

Row | Compound | EG V activity, Enzyme + reagent (control = 100.0) (EG V) | EG V activity, Substrate + reagent (control = 100.0) (EG V) | EV VI activity, Enzyme + reagent (control = 100.0) (EG VI) | EGVI activity, Substrate + reagent (control = 100.0) (EG VI) | EG VII activity, Enzyme + reagent (control = 100.0) (EG VII) | EG VII activity, Substrate + reagent (control = 100.0) (EG VII) | also measured
17 | [Ag+] [Ag^+] | – | – | – | – | – | – | effect of metal ion on activity of all three enzymes (EG V, EG VI and EG VII): markedly decreased activity
18 | O=C(O)c1cc[c]([Hg][Cl])cc1 [p-Chloromercuribenzoate] | 125.4 | 89.7 | 115.4 | 107.1 | 105.4 | 91.6 | –
19 | C[C@H](CCC(=O)NCCS(=O)(=O)O)[C@H]1CC[C@H]2[C@@H]3[C@H](O)C[C@@H]4C[C@H](O)CC[C@]4(C)[C@H]3C[C@H](O)[C@]12C [taurocholic acid] | – | – | – | – | – | – | decrease in activity of EG V by detergent (EG V): 47.7%
20 | Tween 80 | – | – | – | – | – | – | decrease in activity of EG V by detergent (EG V; [1]): 30.8%; loss of activity of EG V by detergent (EG V; simultaneous incubation with substrate): 34.2%
21 | O=C(O)/C=C/c1ccc(O)c(O)c1 [caffeic acid] | – | – | – | – | – | – | effect of phenolic substances on enzyme activity (EG V, EG VI and EG VII): did not have a marked inhibitory effect; effect of phenolic substances on enzyme activity (EG V, EG VI and EG VII; listed as cafeic acid): markedly activated
22 | [Mo] [Mo^6+] | – | – | – | – | – | – | effect of metal ion on activity of all three enzymes (EG V, EG VI and EG VII): enhanced the activity
23 | [Cl-].c1ccc(-c2nn(-c3ccccc3)[n+](-c3ccccc3)n2)cc1 [2,3,5-Triphenyltetrazolium Chloride] | 97.5 | 89.1 | 97.6 | 97.4 | 98.5 | 100.0 | –
24 | O=C1CCC(=O)N1Br [N-Bromosuccinimide (NBS), N-Bromosuccinimide] | 0.0 | 0.0 | 0.0 | 0.0 | 0.0 | 0.0 | EG V activity after protection experiment (control = 100.0) (EG V): 0.0; EGVI activity after protection experiment (control = 100.0) (EG VI): 0.0; EG VII activity after protection experiment (control = 100.0) (EG VII): 0.0
25 | OCc1ccccc1O[C@@H]1O[C@H](CO)[C@@H](O)[C@H](O)[C@H]1O [salicin] | – | – | – | – | – | – | effect of glycosides/disaccharides on activity of EG V-VII (EG V, EG VI and EG VII): no apparent effect
26 | Oc1cc(O)c2c(c1)O[C@H](c1ccc(O)c(O)c1)[C@@H](O)C2 [(+)catechin] | – | – | – | – | – | – | effect of phenolic substances on enzyme activity (EG V, EG VI and EG VII): did not have a marked inhibitory effect
27 | O=C(O)c1ccc(O)c(O)c1 [protocatechuic acid] | – | – | – | – | – | – | effect of phenolic substances on enzyme activity (EG V, EG VI and EG VII): markedly activated
28 | OC(CS)C(O)CS (racemic) [DL-DTT] | 218.9 | 264.3 | 514.3 | 915.5 | 575.0 | 348.6 | EG V activity after protection experiment (control = 100.0) (EG V): 204.3; EGVI activity after protection experiment (control = 100.0) (EG VI): 140.0; EG VII activity after protection experiment (control = 100.0) (EG VII): 94.6
29 | O[C@H](CS)[C@@H](O)CS [Dithioerythritol] | 270.6 | 271.9 | 657.2 | 917.90 | 773.8 | 360.9 | –
30 | [BH4-].[Na+] [Sodium borohydride] | 96.1 | 81.5 | 125.0 | 104.8 | 194.0 | 82.8 | –
31 | N[C@@H](CS)C(=O)O [Cysteine] | 163.8 | 237.8 | 170.4 | 370.20 | 196.5 | 367.7 | EG V activity after protection experiment (control = 100.0) (EG V): 117.0; EGVI activity after protection experiment (control = 100.0) (EG VI): 217.0; EG VII activity after protection experiment (control = 100.0) (EG VII): 167.0
32 | OC[C@H]1O[C@@H](O[C@H]2[C@H](O)[C@@H](O)C(O)O[C@@H]2CO)[C@H](O)[C@@H](O)[C@H]1O (stereo partly shown) [lactose] | – | – | – | – | – | – | concentrations inhibiting EG V (EG V): > 75 mM
